Assay results from patent publication EP3797781A1, “USE OF EC-7072 AND SYNERGIC COMPOSITIONS THEREOF IN TREATMENT OF CHRONIC LYMPHOCYTIC LEUKEMIA” (priority 2019, dated 2021).

Key:
Format in all cases: cell-based, human
[1] = system: leukemia cells; assay: Absolute leukemia cell number quantification by flow cytometry in PBMCs from patients with CLL; conditions: 0 - 400 nM, 24 hours; PBMCs from patients with CLL (n = 13); dose-dependent; Figure 1A
Procedure: (§1) To evaluate absolute cell numbers, an equal volume of PKH26 reference microbeads (Sigma-Aldrich) was added to each sample after staining for immune subset identification. Microbeads (5x10^3) were acquired by flow cytometry and absolute numbers of each immune population within the sample were calculated. Normalized percentage values were calculated considering the control (DMSO)-treated cells as 100%.
The in vitro cytotoxic activity of EC-7072 against primary CLL cells was assessed by: • (i) incubating PBMCs isolated from patients with CLL (n = 13) following treatment with increasing concentrations of EC-7072 (0 - 400 nM) for 24 hours. Numbers of leukemia cells were evaluated by flow cytometry and normalized to their respective control (DMSO) condition for each individual patient to obtain percentage of leukemia cells (Figure 1A); • (ii) incubating PBMCs from patients with CLL (n = 10) with or without EC-7072 (100-400 nM) for 24 hours. Viability of leukemia cells was determined by cytofluorometric assessment of DiOC6(3)/PI staining and normalized to their respective control condition to obtain percentage viability (Figure 1B); • (iii) incubating PBMCs from patients with CLL (n = 10) with increasing concentrations of EC-7072 (0 - 400 nM) for 24 hours. […]

[2] = system: T cells (CD3^+CD56^-); assay: T cell numbers, viability and apoptosis in PBMCs (flow cytometry, DiOC6(3)/PI staining)
Procedure: as §1
(§2) Cell viability and apoptosis were evaluated by double-staining with the mitochondrial inner transmembrane potential (ΔΨm)-sensitive dye DiOC6(3) (3,3'-dihexyloxacarbocyanine iodide; Sigma-Aldrich) and the exclusion dye propidium iodide (PI; Immunostep), allowing identification of apoptotic [DiOC6(3)^low PI^-] and dead [PI^+] cells as per Proc. Natl. Acad. Sci. U.S.A. (2014) 111(8):3020-3025 and Methods Mol. Biol. (2016) 1419:1-16. Briefly, PBMCs were resuspended in culture medium containing 20 nM DiOC6(3) and incubated for 30 minutes at 37 °C. Then, PI (1 µg/mL) was added and cells were further incubated for 10 minutes at room temperature (RT). Cells were analyzed by flow cytometry considering DiOC6(3)^+PI^- cells as viable. In some experiments, apoptosis was evaluated by staining with Annexin V/PI. Thus, PBMCs were incubated in Annexin V binding buffer containing 5 µg/mL Annexin V-FITC (Biolegend) for 15 minutes at RT and PI (1 µg/mL) was subsequently added. Data were normalized to the untreated control as a percentage. Only samples with at least 60% of viable cells (DiOC6(3)^+; Annexin V^-) in the control (DMSO) condition were employed in this study.
The effect of EC-7072 toward healthy immune subsets, T lymphocytes and natural killer (NK) cells, which are chronically exposed to leukemia cells in the peripheral blood of patients with CLL was assessed by: • (i) incubating PBMCs isolated from patients with CLL (n = 10) following treatment with increasing concentrations of EC-7072 (0 - 400 nM) for 24 hours. Numbers of T cells (CD3^+CD56^-) (Figure 2A) and NK cells (CD3^-CD56^+) (Figure 2B) were evaluated by flow cytometry and normalized to their respective control (DMSO) condition for each individual patient to obtain percentage of relative number of T cells and NK cells, respectively; • (ii) incubating PBMCs isolated from patients with CLL (n = 6 - 10) following treatment with increasing concentrations of EC-7072 (0 - 400 nM) for 24 hours. Viability of immune subsets (leukemia cells, T cells and NK cells) was determined by cytofluorometric assessment of DiOC6(3)/PI staining and normalized to their respective control (DMSO) condition for each individual patient to obtain percentage of viable [DiOC6(3)^+] cells (Figures 2C and 2D); • (iii) incubating PBMCs isolated from patients with CLL (n = 11) following treatment with DMSO or EC-7072 (200 nM) for 24 hours. Numbers of CD4^+ cells (Figure 2E) and CD8^+ T cells (Figure 2F) were evaluated by flow cytometry and normalized to their respective control (DMSO) condition for each individual experiment; • (iv) incubating PBMCs isolated from healthy donors (n = 15) following treatment with EC-7072 (200 nM) for 24 hours. […]

[3] = system: healthy B cells; assay: Viability of healthy B cells from healthy donors by DiOC6(3)/PI staining; conditions: 200 nM, 24 hours; PBMCs from healthy donors (n = 20); Figure 1F
Procedure: as §2, with “Thus, PBMCs were incubated in Annexin V binding buffer containing 5 µg/mL Annexin V-FITC (Biolegend) for 15 minutes at RT and PI (1 µg/mL) was subsequently added. Data were normalized to the untreated control as a percentage. Only samples with at least 60% of viable cells (DiOC6(3)^+; Annexin V^-) in the control (DMSO) condition were employed in this study.” left out
The in vitro cytotoxic activity of EC-7072 against primary CLL cells was assessed by: • (i) incubating PBMCs isolated from patients with CLL (n = 13) following treatment with increasing concentrations of EC-7072 (0 - 400 nM) for 24 hours. Numbers of leukemia cells were evaluated by flow cytometry and normalized to their respective control (DMSO) condition for each individual patient to obtain percentage of leukemia cells (Figure 1A); • (ii) incubating PBMCs from patients with CLL (n = 10) with or without EC-7072 (100-400 nM) for 24 hours. […]

Structure (SMILES): CO[C@@H]([C@@H]1Cc2cc3cc(O[C@H]4C[C@@H](O[C@H]5C[C@@H](O)[C@H](O)[C@@H](C)O5)[C@H](O)[C@@H](C)O4)c(C)c(O)c3c(O)c2C(=O)[C@H]1O[C@H]1C[C@@H](O[C@H]2C[C@@H](O[C@H]3C[C@](C)(O)[C@H](O)[C@@H](C)O3)[C@@H](O)[C@@H](C)O2)[C@H](O)[C@@H](C)O1)[C@@H](O)C(C)=O [EC-7072, mithramycin SK]
- leukemia cell numbers [1]: significantly decreased
- T cell numbers and viability ([2]; 0 - 400 nM, 24 hours, PBMCs from patients with CLL): negligible effects
- ratio of apoptosis to cell death in T cells ([2]; 200 nM, 24 hours, PBMCs from healthy donors (n = 4), Figure 2Q): comparable to that induced by EC-7073
- viability of T cells, comparison of mithralogs ([2]; 200 nM, 24 hours, PBMCs from healthy donors (n = 10), Figure 2N): not exhibit toxicity
- cell numbers and viability of T lymphocytes ([2]; 200 nM, 24 hours, PBMCs from healthy donors (n = 15), compared with PBMCs from patients with CLL): comparable effects
- toxicity against T cells compared with fludarabine ([2]; EC-7072 200 nM 24 hours vs fludarabine 10 µM 24 hours, PBMCs from patients with CLL (n = 6 - 8), Figure 4F): significantly less toxic than fludarabine
- viability of healthy B cells [3]: triggered death of normal B cells
